Measured values taken from patent US4665092A, “Styrene derivatives, their use as antiallergic agents and intemediate epoxides for their synthesis” (Ortho Pharmaceutical Corporation, priority 1985, dated 1987).

Experiment: Anti-allergic / anti-inflammatory activity of the invention compounds; the test is not specified (5-lipoxygenase inhibition in RBL-1 cells and active lung anaphylaxis in guinea-pigs are described)
Conditions: no IC50 or percent inhibition printed
Procedure: The compounds of the invention of formulae (I) and (II) may be used as pharmaceutical agents in the treatment of inflammation and/or allergic reactions. […] Such testing procedures were carried out on compounds of the invention as described below:
Rat basophilic leukemia cells (RBL-1) were grown in Eagle's Minimal Essential Medium containing 10% fetal calf serum, 5% calf serum, 1% glutamine and 50 mg/L gentamycin and were maintained at 37° C. in a atmosphere containing 5% CO2. Exponentially growing cells were harvested by centrifugation at 400xg for 10 minutes at 4° C. and were washed once with Dulbecco's phosphate buffered saline containing 0.87 mM CaCl2. The cells were resuspended in the same buffer at a concentration of 1.85×10^7 cells/ml. […]
In order to isolate the Δ5 -lipoxygenase product ^14 C-5-HETE that was formed from arachidonic acid, each assay tube was extracted once with 6 volumes of anhydrous diethyl ether. In most assays, the recovery of product was estimated by determining the total amount of radioactivity recovered after extraction. In the remaining assays the recovery of ^14 C-5-HETE was monitored by addition of trace quantities of ^3 H-5-HETE (New England Nuclear) prior to extraction. […] The amount of ^14 C-5-HETE presented was quantitated by liquid scintillation counting in Aquasol II (New England Nuclear) and corrected for recovery. […]

Row | Compound | activity of the compound (statement in words, figures not given)
1 | CC(C)=CCC[C@](C)(O)[C@@H](/C=C\C=C\c1ccccc1)Sc1ccccc1 [Example 7, (5R,6S) 1-Phenyl-5-phenylthio-6-hydroxy-6,10-dimethylundeca-(1E,3Z,9)-triene Monoh ydrate] | Particularly active
2 | O[C@@H](CCCCOC1CCCCO1)[C@@H](/C=C/c1ccccc1)Sc1ccccc1 (stereo partly drawn) [Example 1g, (3R,4S)-4-Hydroxy-1-phenyl-3-phenylthio-8-(2-tetrahydropyranyloxy)-1(E)-octene] | Particularly active
